Patent US7927799B2, “Inhibitors of PGHS-2Transactivator activity” (Ordway Research Institute, priority 2005, dated 2011)

Experiments:
[1] = tested on: PGE2 production; experiment: PGE2 production in cells by ELISA; type: cell-based, human; details: DU145 and UM-SCC-22B cells, 12 h; PMA 100 nM, NS398, indomethacin, PD98059 each 10 μM
Procedure: Cells were plated in 48-well culture dishes and treated or without PMA (100 nM), NS398 (10 μM), indomethacin (10 μM) or PD98059 (10 μM) for 12 h. Cells were transferred to 200 μl PBS for the last 30 min. Samples were then collected and subjected to quantitative analysis of PGE2 by ELISA. The results are shown as mean±SD of results from three representative studies.

[2] = tested on: PGHS-2 mRNA; experiment: PGHS-2 mRNA levels by RT-PCR; type: cell-based, human; details: PMA 100 nM, 8 h; ECV 304, DU145 and UM-SCC-22B cells
Procedure: B: PGHS-2 mRNA levels in ECV 304, DU145 and UM-SCC-22B cells. Confluent cells were treated with or without PMA (100 nM) for 8 h. Total RNA samples were harvested and subjected to RT-PCR using PGHS-2 or GAPDH primers (top and bottom panels, respectively).

[3] = tested on: PGHS-2 promoter; experiment: Chromatin immunoprecipitation (ChIP) of PGHS-2 binding to the PGHS-2 promoter; type: cell-based, human; details: 12 h, PMA 100 nM, PDTC 100 μM, PD98059 10 μM
Procedure: (§1) A: ChIP was performed with PGHS-2 antibody, using UM-SCC-22B (22B) cells constitutively expressing PGHS-2, and in the absence (Con) or presence of PMA (100 nM), PDTC (100 μM) or PD98059 (PD, 10 μM) for 12 h. Input and immunoprecipitated (IP) DNA was amplified by using primers for MDM2, PGHS-2 promoter and PGHS-2 ORF, and the amplified DNAs were then separated by electrophoresis and scanned with the VersaDOC™ Imaging System.
(§2) In ChIP experiments in prostate cancer cells, using monoclonal anti-PGHS-2, we compared the amount of immunoprecipitable PGHS-2 promoter sequence with the amount of input DNA for each sample; a PGHS-2 ORF primer served as a negative control. […] PGHS-2 also bound to the promoter region of MDM2.
Chromatin immunoprecipitation was performed as described by Luo et al. (1998) and Braunstein et al. (1996). Aliquots of cells (6 ×10^6) in monolayers were treated with 1% formaldehyde for 15 min at room temperature to effect crosslinking. Monolayers were then washed twice with PBS. Extracts were prepared by scraping cells in 1 ml of buffer (150 mM NaCl, 1% NP-40, 0.5% DOC, 0.1% SDS, 50 mM Tris [pH 8.0], 5 mM EDTA) that contained the protease inhibitors leupeptin (10 µg/ml) and pepstatin A (10 µg/ml), phosphatase inhibitors (50 mM NaF and 0.2 mM sodium orthovanadate) and the deacetylase inhibitor, trichostatin A, 5 µM (Calbiochem, San Diego, Calif.). Cell lysates were sonicated to yield chromatin fragments of approximately 600 bp, as assessed by agarose gel electrophoresis. Immunoprecipitation was carried out with anti-p53 (Santa Cruz, Santa Cruz, Calif.), anti-phosphoSer392-p53 (Cell Signaling, Beverly, Mass.), or anti-acetylated p53 (Upstate Biotechnology, Lake Placid, N.Y.). For studies of the PGHS-2 promoter, anti-PGHS-2 (Cayman) was used. […] Relative levels of DNA were determined with QuantifyOne software (Bio-Rad Laboratories, Inc., Hercules, Calif.).

[4] = tested on: PGHS-2 / c-Fos association; experiment: Co-immunoprecipitation of nuclear PGHS-2 with c-Fos; type: cell-based, human; details: UM-SCC-22B cells, PMA 100 nM, 12 h
Procedure: (§3) Confluent UM-SCC-22B (22B) cells were treated with PMA, 100 nM, or solvent alone for 12 h. Cell nuclei were prepared (Lin et al., 1999) and immunoprecipitated with antibody to PGHS-2. Immunoprecipitated proteins were separated by gel electrophoresis and immunoblotted with antibody to c-Fos, MDM2 or p300. Shown are representative immunoblots from 3 similar experiments. Co-localization of c-Fos with PGHS-2 is seen in nuclei of UM-SCC-22B cells.
(§4) The techniques used were those previously described by our laboratory (Lin et al., 1999). In brief, nucleoproteins were separated on discontinuous SDS-PAGE (9% gels) and then transferred by electroblotting to Immobilon membranes (Millipore, Bedford, Mass.). After blocking with 5% milk in Tris-buffered saline containing 0.1% Tween, the membranes were incubated with various antibodies overnight. Secondary antibodies were either goat anti-rabbit IgG (1:1000) or rabbit anti-mouse IgG (1:1000) (Dako, Carpenteria, Calif.), depending upon the origin of the primary antibody. Immunoreactive proteins were detected by chemiluminescence.

[5] = tested on: PGHS-2 protein expression; experiment: PGHS-2 protein by immunoblotting of nuclear/cytosol proteins; type: cell-based, human; details: PMA 100 nM, 12 h; for PGHS-2 protein / PGHS-2 expression: confluent UM-SCC-22B cells, PD98059 10 μM, SB203580 10 μM, PDTC 100 μM
Procedure: A: Effects of PKC activation or signaling pathway inhibitors on PGHS-2 expression. UM-SCC 22B cells were allowed to grow to confluence in 10 cm culture dishes, and then received either control medium (lane 1) or medium containing PMA (lane 2, 100 nM), PD98059 (PD, lane 3, 10 μM), SB203580 (SB, lane 4, 10 μM) or PDTC (lane 5, 100 μM) for 16 h. Cell monolayers were harvested and 40 μg nuclear protein were subjected to immunoblotting with anti-human PGHS-2 (upper panel) or anti-pMAPK (pERK1/2, lower panel). […] Results shown are the means±SD from three similar experiments.
Fractionation of cells in a microfuge and preparation of nucleoproteins was by a previously reported method (Lin et al., 2002). Nuclear extracts were prepared by resuspension of the crude nuclear fraction in high salt buffer (420 mN NaCl, 20% glycerol) at 4° C. with rocking for 1 h. The supernatants were then collected after subsequent centrifugation at 4° C. and 13,000 rpm for 10 min.

[6] = tested on: PGHS-1 protein expression; experiment: PGHS-1 protein by immunoblotting; type: cell-based, human; details: PMA 100 nM, 12 h; cancer cell lines
Procedure: FIG. 2. Expression of PGHS-2 in ECV 304, DU145 and UM-SCC-22B (22B) cells A: Constitutive expression of PGHS-2 protein in ECV 304, DU145 and UM-SCC-22B cells. Cells were grown to confluence in 10 cm dishes. Monolayers were treated with or without PMA (100 nM) for 12 h; nuclear proteins were then harvested and subjected to immunoblotting with antihuman PGHS-2 (panel 1) or -PGHS-1 (panel 2).
as §4

[7] = tested on: PGHS-2 / p300 association; experiment: Co-immunoprecipitation of nuclear PGHS-2 with p300; type: cell-based, human; details: UM-SCC-22B cells, PMA 100 nM, 12 h
Procedure: as §3, §4

[8] = tested on: human PGHS-2 promoter; experiment: PGHS-2 promoter (-831/+123) luciferase reporter assay; type: cell-based; details: UM-SCC-22B cells, 12 h; PMA 100 nM, PD98059 10 μM, PDTC 100 μM, SB203580 10 μM
Procedure: UM-SCC-22B cells were transfected with the −831/+123 PGHS-2 promoter constructs fused to a luciferase reporter or the luciferase reporter with the SV 40 promoter (pGL2 promoter).
Aliquots of cells were treated with PMA (100 mM), PD98059 (10 μM), PDTC (100 μM), or SB203580 (10 μM) for 12 h. Cultures were co-transfected with β-galactosidase reporter plasmids, and luciferase activity, corrected for β-galactosidase activity, measured and expressed as the mean±SD of triplicate culture determinations from three experiments.
To assess PGHS-2 promoter activity in UM-SCC-22B cells, the proximal −831/+123 base pairs of the human PGHS-2 promoter were fused to a luciferase reporter (pGHS-2 LUC) (Cao et al., 1999). This PGHS-2 reporter or SV40 LUC (pGL2 promoter) were transfected into near confluent UM-SCC-22B tumor cells.

[9] = tested on: PGHS-2 / MDM2 association; experiment: Co-immunoprecipitation of nuclear PGHS-2 with MDM2; type: cell-based, human; details: UM-SCC-22B cells, PMA 100 nM, 12 h
Procedure: as §3, §4

[10] = tested on: MDM2 promoter; experiment: Chromatin immunoprecipitation (ChIP) of PGHS-2 binding to the MDM2 promoter; type: cell-based, human; details: 12 h, PDTC 100 μM, PD98059 10 μM
Procedure: as §1, §2
Chromatin immunoprecipitation was performed as described by Luo et al. (1998) and Braunstein et al. (1996). Aliquots of cells (6 ×10^6) in monolayers were treated with 1% formaldehyde for 15 min at room temperature to effect crosslinking. Monolayers were then washed twice with PBS. […] Cell lysates were sonicated to yield chromatin fragments of approximately 600 bp, as assessed by agarose gel electrophoresis. […] Relative levels of DNA were determined with QuantifyOne software (Bio-Rad Laboratories, Inc., Hercules, Calif.).

Structure (SMILES)	PGE2 production [1]	binding of PGHS-2 to the PGHS-2 promoter [3]	PGHS-2 protein / PGHS-2 expression [5]	PGHS-2 promoter activity (luciferase) [8]	binding of PGHS-2 to the MDM2 promoter [10]	other results
COc1ccc2c(c1)c(CC(=O)O)c(C)n2C(=O)c1ccc(Cl)cc1 [indomethacin]	decreased PGE2 production in cancer cells to basal levels					
CS(=O)(=O)Nc1ccc([N+](=O)[O-])cc1OC1CCCCC1 [NS398]	decreased PGE2 production in cancer cells to basal levels					
CCCCCCCCCCCCCC(=O)O[C@@H]1[C@@H](C)[C@@]2(O)[C@@H](C=C(CO)C[C@]3(O)C(=O)C(C)=C[C@@H]23)[C@@H]2C(C)(C)[C@]12OC(C)=O [PMA, phorbol-12-myristate-13-acetate]	did not significantly increase	minimal increases	increase	only negligibly increased		abundance of PGHS-2 mRNA [2]: increased; nuclear association of PGHS-2 with c-Fos [4]: marked increase; cytosolic PGHS-2 [5]: increased; abundance of PGHS-2 protein in nuclei ([5]; ECV 304, DU145 and UM-SCC-22B cells): increased; abundance of PGHS-1 [6]: no effect; nuclear association of PGHS-2 with p300 [7]: little increase; nuclear association of PGHS-2 with MDM2 [9]: little increase
C[S+]([O-])c1ccc(-c2nc(-c3ccncc3)c(-c3ccc(F)cc3)[nH]2)cc1 (stereo not drawn) [SB203580]			minimally inhibited	inhibited		
S=C(S)N1CCCC1 [PDTC, pyrrolidine dithiocarbamate]		inhibited	minimally inhibited	inhibited	inhibited	
COc1cccc(-c2cc(=O)c3ccccc3o2)c1N [PD98059]	decreased PGE2 production in cancer cells to basal levels	inhibited	decreased to very low levels	inhibited	inhibited	
